The assay concerns the target T1, human CTPS1 (Homo sapiens, UniProt P17812).
T1 sequence (P17812 1-591): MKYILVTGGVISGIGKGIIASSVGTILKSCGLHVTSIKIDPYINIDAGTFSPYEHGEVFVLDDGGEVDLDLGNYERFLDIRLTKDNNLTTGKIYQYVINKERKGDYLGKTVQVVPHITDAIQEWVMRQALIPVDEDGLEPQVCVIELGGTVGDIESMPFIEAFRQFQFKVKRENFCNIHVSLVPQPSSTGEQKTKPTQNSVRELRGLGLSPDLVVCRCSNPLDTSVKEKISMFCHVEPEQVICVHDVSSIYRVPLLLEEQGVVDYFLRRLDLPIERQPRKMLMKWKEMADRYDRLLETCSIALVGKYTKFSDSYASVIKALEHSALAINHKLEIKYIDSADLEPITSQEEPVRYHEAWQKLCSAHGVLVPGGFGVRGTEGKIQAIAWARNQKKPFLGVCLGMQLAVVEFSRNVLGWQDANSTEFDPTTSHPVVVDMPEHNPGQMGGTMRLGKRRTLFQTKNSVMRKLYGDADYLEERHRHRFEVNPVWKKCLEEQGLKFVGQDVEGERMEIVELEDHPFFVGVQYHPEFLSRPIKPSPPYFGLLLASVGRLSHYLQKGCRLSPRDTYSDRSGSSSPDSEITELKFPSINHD
The experiment in a line: ADP-Glo assay, human CTPS1 enzyme inhibition. Type of assay: biochemical. As to conditions: wild-type human CTPS1, 25 nM enzyme; ADP-Glo; read-out: ADP-Glo_WT_hCTPS1—25 nM_IC50 (IC50). The protocol:
The enzyme inhibitory activities of the compounds of the invention against the target of interest were determined using the ADP-Glo™ assay (Promega). Assays for human CTPS1 and CTPS2 were performed in 1× assay buffer containing 50 mM HEPES (Life Technologies), 10 mM Mg2+, 5 mM KCl, 2 mM DTT, 0.01% F-127, pH to 7.4 accordingly. All reagents are from Sigma-Aldrich, unless specified otherwise. Purified human full length active N-terminal FLAG-8×HIS-TEV tagged CTPS1 (UniprotKB—P17812, […]-CTPS1[1-591]) was generated using a mammalian expression system at Viva Biotech (Shanghai) Ltd.
Purified human CTPS1 protein was prepared in 1× assay buffer to the final working protein concentration required for the reaction. A 2.5 μL volume per well of human CTPS 1 protein was mixed with 0.1 μL per well of test compound dissolved in DMSO and pre-incubated at 25 degrees C. for 10 minutes. 2.5 μL per well of the reaction precursors ATP (UltraPure ATP from ADP-Glo™ kit) and UTP were then added and pre-incubated for an additional 10 minutes at 25 degrees C. Finally, the reaction was initiated by the addition of 5 μL of the reaction precursors L-glutamine and GTP. The final concentration of all reaction components in the assay: ATP (120 μM), UTP (160 μM), GTP (60 μM), L-Glutamine (100 μM), DMSO (1%), hCTPS1 (25 nM). This mixture was incubated for an appropriate amount of time within the determined linear phase of the reaction at 25 degrees C. under sealed plate conditions with constant agitation at 500 revolutions per minute (rpm). ADP-Glo™ reagent was added for 60 minutes (10 μL per well) and subsequently ADP-Glo™ development reagent was added for 60 minutes (20 μL per well) prior to signal detection in a microplate reader (Envision Multilabel Reader, Perkin Elmer). Following each reagent addition over the course of the assay, assay plates were pulse centrifuged for 1 minute at 1000 rpm.
The enzyme converts ATP to ADP and the ADP-Glo™ reagent subsequently depletes any remaining ATP in the reaction system. The ADP-Glo™ detection reagents converts the ADP that has been produced by the enzyme back into ATP, which is then utilized as a substrate together with luciferin for the enzyme luciferase. Light generated by this chemiluminescent reaction is quantified and is directly proportional to the amount of ADP produced by the CTPS1 enzyme reaction. […]

Bounds are passed on as bounds.

Take `COCC[C@H](NC(=O)c1ncc(-c2cnn3ccc(Cl)cc23)s1)c1cc(NS(=O)(=O)C2CC2)ccn1` (single isomer, unassigned) [I-1]: the IC50 fell in the range of 5 to 25 nM.

As for `COCC[C@@H](NC(=O)c1ncc(-c2cnn3ccc(Cl)cc23)s1)c1cc(NS(=O)(=O)C2CC2)ccn1` (single isomer, unassigned) [I-2], the half-inhibitory concentration (IC50) was 5 to 25 nM.

As to `COC[C@H](NC(=O)c1ncc(-c2cnn3ccc(Cl)cc23)s1)c1cc(NS(=O)(=O)C2CC2)ccn1` (single isomer, unassigned) [I-3], the 50% inhibitory concentration (IC50) fell in the range of 5 to 25 nM.

`COC[C@@H](NC(=O)c1ncc(-c2cnn3ccc(Cl)cc23)s1)c1cc(NS(=O)(=O)C2CC2)ccn1` (single isomer, unassigned) [I-4]: the IC50 is 5 to 25 nM.

`CCOc1cncc(-c2ccc(C(=O)N[C@@H](CCN3CCCCC3)c3cc(NS(=O)(=O)C4CC4)ccn3)c(F)c2F)n1` (single isomer, unassigned) [I-6]: the IC50 is greater than 100 nM.

For `CCOc1cncc(-c2ccc(C(=O)N[C@H](CCN3CCCCC3)c3cc(NS(=O)(=O)C4CC4)ccn3)c(F)c2F)n1` (single isomer, unassigned) [I-7], the 50% inhibitory concentration (IC50) lay in the range of 5 to 25 nM.

On to `O=C(N[C@@H](CCN1CCCCC1)c1cc(NS(=O)(=O)C2CC2)ccn1)c1ncc(-c2cnn3ccc(Cl)cc23)s1` (single isomer, unassigned) [I-9], for which the 50% inhibitory concentration (IC50) is greater than 100 nM.

`O=C(N[C@H](CCN1CCCCC1)c1cc(NS(=O)(=O)C2CC2)ccn1)c1ncc(-c2cnn3ccc(Cl)cc23)s1` (single isomer, unassigned) [I-10]: the half-maximal inhibitory concentration (IC50) is 5 to 25 nM.

Consider `CCOc1cncc(-c2cnc(C(=O)N[C@@H](COC)c3nccc(NS(=O)(=O)C4CC4)c3F)s2)n1` (single isomer, unassigned) [I-11], for which the half-inhibitory concentration (IC50) lay in the range of 5 to 25 nM.

As for `CCOc1cncc(-c2cnc(C(=O)N[C@H](COC)c3nccc(NS(=O)(=O)C4CC4)c3F)s2)n1` (single isomer, unassigned) [I-12], the IC50 was 5 to 25 nM.

`CCOc1cncc(-c2cnc(C(=O)N[C@@H](CCN(C)C3CCCCC3)c3cc(NS(=O)(=O)C4CC4)ccn3)s2)n1` (single isomer, unassigned) [I-13]: the IC50 lay in the range of 50 to 100 nM.

Consider `CCOc1cncc(-c2cnc(C(=O)N[C@H](CCN(C)C3CCCCC3)c3cc(NS(=O)(=O)C4CC4)ccn3)s2)n1` (single isomer, unassigned) [I-14], for which the IC50 was 5 to 25 nM.

With `CCOc1cncc(-c2cnc(C(=O)N[C@@H](CCN3CCC(F)CC3)c3cc(NS(=O)(=O)C4CC4)ccn3)s2)n1` (single isomer, unassigned) [I-15], the IC50 is 50 to 100 nM.

With `CCOc1cncc(-c2cnc(C(=O)N[C@H](CCN3CCC(F)CC3)c3cc(NS(=O)(=O)C4CC4)ccn3)s2)n1` (single isomer, unassigned) [I-16], the half-maximal inhibitory concentration (IC50) lay in the range of 5 to 25 nM.

On to `CCOc1cncc(-c2cnc(C(=O)N[C@H](CCN3CCCC4(CC4)C3)c3cc(NS(=O)(=O)C4CC4)ccn3)s2)n1` (single isomer, unassigned) [I-17], for which the IC50 was no more than 5 nM.

In the case of `CCOc1cncc(-c2cnc(C(=O)N[C@@H](CCN3CCCC4(CC4)C3)c3cc(NS(=O)(=O)C4CC4)ccn3)s2)n1` (single isomer, unassigned) [I-18], the IC50 is greater than 100 nM.

Turning to `O=C(N[C@H](c1cc(NS(=O)(=O)C2CC2)ccn1)[C@H]1CCOC1)c1ncc(-c2cnn3ccc(Cl)cc23)s1` (single isomer, unassigned) [I-22], the IC50 fell in the range of 5 to 25 nM.

Consider `O=C(N[C@H](c1cc(NS(=O)(=O)C2CC2)ccn1)[C@@H]1CCOC1)c1ncc(-c2cnn3ccc(Cl)cc23)s1` (single isomer, unassigned) [I-23], for which the IC50 lay within 5 to 25 nM.

Regarding `O=C(N[C@@H](c1cc(NS(=O)(=O)C2CC2)ccn1)[C@@H]1CCOC1)c1ncc(-c2cnn3ccc(Cl)cc23)s1` (single isomer, unassigned) [I-24], the half-maximal inhibitory concentration (IC50) was in the range of 5 to 25 nM.

As for `O=C(N[C@@H](c1cc(NS(=O)(=O)C2CC2)ccn1)[C@H]1CCOC1)c1ncc(-c2cnn3ccc(Cl)cc23)s1` (single isomer, unassigned) [I-25], the IC50 is 5 to 25 nM.

As to `CCOc1cncc(-c2cnc(C(=O)N[C@@H](C[C@@H]3CCCCN3C(C)C)c3cc(NS(=O)(=O)C4CC4)ccn3)s2)n1` (single isomer, unassigned) [I-26], the half-inhibitory concentration (IC50) was greater than 100 nM.

Turning to `CCOc1cncc(-c2cnc(C(=O)N[C@H](C[C@H]3CCCCN3C(C)C)c3cc(NS(=O)(=O)C4CC4)ccn3)s2)n1` (single isomer, unassigned) [I-27], the IC50 is 5 to 25 nM.

For the compound `CCOc1cncc(-c2cnc(C(=O)N[C@@H](C[C@H]3CCCCN3C(C)C)c3cc(NS(=O)(=O)C4CC4)ccn3)s2)n1` (single isomer, unassigned) [I-28], the IC50 is no more than 5 nM.

For `CCOc1cncc(-c2cnc(C(=O)N[C@H](C[C@@H]3CCCCN3C(C)C)c3cc(NS(=O)(=O)C4CC4)ccn3)s2)n1` (single isomer, unassigned) [I-29], the half-maximal inhibitory concentration (IC50) was greater than 100 nM.

Turning to `CCOc1cncc(-c2cnc(C(=O)N[C@@H](CN3C[C@H]4COC[C@H]4C3)c3cc(NS(=O)(=O)C4CC4)ccn3)s2)n1` (single isomer, unassigned) [I-30], the half-inhibitory concentration (IC50) lay in the range of 25 to 50 nM.

For `CCOc1cncc(-c2cnc(C(=O)N[C@H](CN3C[C@H]4COC[C@H]4C3)c3cc(NS(=O)(=O)C4CC4)ccn3)s2)n1` (single isomer, unassigned) [I-31], the half-maximal inhibitory concentration (IC50) was 5 to 25 nM.

Consider `CCOc1cncc(-c2cnc(C(=O)N[C@@H](CN3CCOC[C@H]3C)c3cc(NS(=O)(=O)C4CC4)ccn3)s2)n1` (single isomer, unassigned) [I-32], for which the IC50 fell in the range of 25 to 50 nM.

Consider `CCOc1cncc(-c2cnc(C(=O)N[C@H](CN3CCOC[C@H]3C)c3cc(NS(=O)(=O)C4CC4)ccn3)s2)n1` (single isomer, unassigned) [I-33], for which the half-maximal inhibitory concentration (IC50) fell in the range of 5 to 25 nM.

For `CCOc1cncc(-c2cnc(C(=O)N[C@@H](CN3CCOC[C@@H]3C)c3cc(NS(=O)(=O)C4CC4)ccn3)s2)n1` (single isomer, unassigned) [I-34], the IC50 fell in the range of 5 to 25 nM.

In the case of `CCOc1cncc(-c2cnc(C(=O)N[C@H](CN3CCOC[C@@H]3C)c3cc(NS(=O)(=O)C4CC4)ccn3)s2)n1` (single isomer, unassigned) [I-35], the IC50 was no more than 5 nM.

As to `CCOc1cncc(-c2cnc(C(=O)N[C@@H](CN3[C@@H]4CC[C@H]3COC4)c3cc(NS(=O)(=O)C4CC4)ccn3)s2)n1` (single isomer, unassigned) [I-36], the IC50 was in the range of 50 to 100 nM.

Consider `CCOc1cncc(-c2cnc(C(=O)N[C@H](CN3[C@@H]4CC[C@H]3COC4)c3cc(NS(=O)(=O)C4CC4)ccn3)s2)n1` (single isomer, unassigned) [I-37], for which the half-inhibitory concentration (IC50) lay within 5 to 25 nM.

In the case of `CCOc1cncc(-c2cnc(C(=O)N[C@@H](CN3CCCC3)c3cccc(NS(=O)(=O)C(F)F)c3)s2)n1` (single isomer, unassigned) [I-38], the 50% inhibitory concentration (IC50) lay in the range of 5 to 25 nM.

With `CCOc1cncc(-c2cnc(C(=O)N[C@H](CN3CCCC3)c3cccc(NS(=O)(=O)C(F)F)c3)s2)n1` (single isomer, unassigned) [I-39], the concentration for half-maximal inhibition (IC50) was 25 to 50 nM.

Take `CCOc1cncc(-c2cnc(C(=O)N[C@H](CN3CCN(C4CC4)CC3)c3cccc(NS(=O)(=O)C(F)F)c3)s2)n1` (single isomer, unassigned) [I-40]: the IC50 fell in the range of 25 to 50 nM.

For `CCOc1cncc(-c2cnc(C(=O)N[C@@H](CN3CCN(C4CC4)CC3)c3cccc(NS(=O)(=O)C(F)F)c3)s2)n1` (single isomer, unassigned) [I-41], the IC50 lay in the range of 5 to 25 nM.

Consider `CCOc1cncc(-c2cnc(C(=O)N[C@H](c3cc(NS(=O)(=O)C4CC4)ccn3)C(C)(C)CN(C)C)s2)n1` (single isomer, unassigned) [I-42], for which the half-maximal inhibitory concentration (IC50) was in the range of 50 to 100 nM.
